In one assay the test system is IL-1β. In words: Tissue level of IL-1β in the myocardium after reperfusion (ELISA). The format is ex vivo (isolated Langendorff-perfused heart after in vivo dosing), Sprague-Dawley rats. The following applies: 10 mg/kg intraperitoneally; after 60 min reperfusion; mean±SEM; C group 3700±700, not statistically significantly different. Here is the method: (§1) Sixteen Sprague-Dawley rats (300 g, male) were divided into a control group (“C group,” n=8) and a group administered (−)-ethyl N-{3,5-dichloro-2-hydroxy-4-[2-(4-methylpiperazin-1-yl)ethoxy]benzoyl}-L-phenylalaninate dihydrochloride (“J group,” n=8). All rats were anesthesized by intraperitoneal injection of sodium pentobarbital (50 mg/kg), and either (a) 0.5 mL of saline (C group) or (b) 10 mg/kg of (−)-ethyl N-{3,5-dichloro-2-hydroxy-4-[2-(4-methylpiperazin-1-yl)ethoxy]benzoyl}-L-phenylalaninate dihydrochloride dissolved in 5% mannitol (J group) was administered intraperitoneally to the rats. Anticoagulation was ensured by the intraperitoneal administration of 200 USP units of heparin. […]
(§2) After stabilization, heart rate (HR), left ventricular developed pressure (LVDP), maximum dP/dt (maximum dP/dt), and coronary flow (CF) were measured with LV diastolic pressure stabilized at 10 mm Hg. […] HR, LVDP, maximum dP/dt, and CF were continuously measured after reperfusion and analyzed using a Polygraph System (Nihon Kouden, Japan).
(§3) After 60 minutes of reperfusion, frozen sections of the hearts were made and stored at −80° C. for further assessment. […] The concentrations of tissue inflammatory cytokines were measured using ELISA kits (TNF-α, IL-1β, and IL-6: Biosource International, California; and IL-8: Immuno-Biological Laboratories, Gunma, Japan) according to the manufacturer's recommendation. […]

In the next assay the test system is TNF-α. The assay can be described thus: Tissue level of TNF-α in the myocardium after reperfusion (ELISA). Also on record: species or system Sprague-Dawley rats. The settings on record: 10 mg/kg intraperitoneally; after 60 min reperfusion; mean±SEM; C group 550±80, p<0.05. The procedure:
as §1, §2, §3
(ELISA stands for enzyme-linked immunosorbent assay.)

Assay [1] has as its system cardiac myocytes (CPK leakage). The assay can be described thus: Creatine phosphokinase (CPK) leakage into the coronary effluent after reperfusion. Type of assay: ex vivo (isolated perfused hearts from dosed rats), Sprague-Dawley rats. The following applies: 10 mg/kg intraperitoneally; coronary effluent for 60 minutes after reperfusion; mean±SEM; C group 140±61, p<0.05. The procedure: as §1
After stabilization, heart rate (HR), left ventricular developed pressure (LVDP), maximum dP/dt (maximum dP/dt), and coronary flow (CF) were measured with LV diastolic pressure stabilized at 10 mm Hg. […] HR, LVDP, maximum dP/dt, and CF were continuously measured after reperfusion and analyzed using a Polygraph System (Nihon Kouden, Japan). […]
There were significant differences between the two groups, however, following global ischemia and reperfusion. FIGS. 1 and 2 depict the cardiac function (as measured by LVDP and maximum dP/dt) after ischemia reperfusion between the C and J groups. For the following parameters, data are expressed as mean±standard error of the mean (SEM). […]

The test system of the next assay is IL-6. In words: Tissue level of IL-6 in the myocardium after reperfusion (ELISA). The settings on record: 10 mg/kg intraperitoneally; after 60 min reperfusion; mean±SEM; C group 300±80, p<0.05. The format is ex vivo (isolated Langendorff-perfused heart, dosed in vivo), Sprague-Dawley rats. The procedure:
as §1, §2, §3

In another assay the test system is IL-8. In words: Tissue level of IL-8 in the myocardium after reperfusion (ELISA). The following applies: 10 mg/kg intraperitoneally; after 60 min reperfusion; mean±SEM; C group 240±40, p<0.05. The format is ex vivo (isolated Langendorff-perfused heart), Sprague-Dawley rats. The procedure:
as §1, §2, §3

The test system of assay [2] is hearts of Sprague-Dawley rats (myocardial ischemia reperfusion injury). The assay can be described thus: Cardiac function of isolated Langendorff-perfused rat hearts after 30 min global ischemia and 60 min reperfusion. Type of assay: ex vivo. The procedure:
Sixteen Sprague-Dawley rats (300 g, male) were divided into a control group (“C group,” n=8) and a group administered (−)-ethyl N-{3,5-dichloro-2-hydroxy-4-[2-(4-methylpiperazin-1-yl)ethoxy]benzoyl}-L-phenylalaninate dihydrochloride (“J group,” n=8). All rats were anesthesized by intraperitoneal injection of sodium pentobarbital (50 mg/kg), and either (a) 0.5 mL of saline (C group) or (b) 10 mg/kg of (−)-ethyl N-{3,5-dichloro-2-hydroxy-4-[2-(4-methylpiperazin-1-yl)ethoxy]benzoyl}-L-phenylalaninate dihydrochloride dissolved in 5% mannitol (J group) was administered intraperitoneally to the rats. Anticoagulation was ensured by the intraperitoneal administration of 200 USP units of heparin.
Ten minutes after the administration of heparin and either (a) saline (C group) or (b) 10 mg/kg of (−)-ethyl N-{3,5-dichloro-2-hydroxy-4-[2-(4-methylpiperazin-1-yl)ethoxy]benzoyl}-L-phenylalaninate dihydrochloride dissolved in 5% mannitol (J group), the hearts of the rats were excised and perfused with modified Krebs-Henseleit buffer (120.0 mM NaCl, 4.5 mM KCl, 20.0 mM NaHCO3, 1.2 mM KH2PO4, 1.2 MgCl2, 2.5 mM CaCl2, and 10.0 mM glucose: gassed with 95% O2+5% CO2 to obtain a pH of 7.4 at 37° C.) at the pressure equal to 1 m H2O by means of a Langendorff apparatus. A thin-wall latex balloon was inserted into the left ventricle through the left atrium to monitor left ventricular pressure and to control left ventricular volume.
After stabilization, heart rate (HR), left ventricular developed pressure (LVDP), maximum dP/dt (maximum dP/dt), and coronary flow (CF) were measured with LV diastolic pressure stabilized at 10 mm Hg. The hearts were subjected to global ischemia at 37° C. for 30 minutes, followed by 60 minutes of reperfusion. The balloon was deflated during ischemia, and the hearts were not paced during reperfusion. HR, LVDP, maximum dP/dt, and CF were continuously measured after reperfusion and analyzed using a Polygraph System (Nihon Kouden, Japan).
There were significant differences between the two groups, however, following global ischemia and reperfusion. FIGS. 1 and 2 depict the cardiac function (as measured by LVDP and maximum dP/dt) after ischemia reperfusion between the C and J groups. For the following parameters, data are expressed as mean±standard error of the mean (SEM). The difference in the data on functional recoveries were determined with one-way repeated measure ANOVA. The difference in the data on CPK leakage and tissue cytokine concentrations were determined with unpaired Student's t test. A p value of less than 0.05 was considered statistically significant.

Structures can show the parent of a compound that is named as a salt.

With `CCOC(=O)[C@H](Cc1ccccc1)NC(=O)c1cc(Cl)c(OCCN2CCN(C)CC2)c(Cl)c1O` [(−)-ethyl N-{3,5-dichloro-2-hydroxy-4-[2-(4-methylpiperazin-1-yl)ethoxy]benzoyl}-L-phenylalaninate dihydrochloride], the “tissue level of IL-1β in the myocardium after reperfusion” value with IL-1β came out at 2600±200 pg/mg tissue. For the same molecule, in the assay on TNF-α, the “tissue level of TNF-α in the myocardium after reperfusion” value is reported as 240±30 pg/mg tissue. In assay [1], the “CPK leakage of the coronary effluent” value was 2.9±2.0 IU/60 minutes. In addition, in the assay on IL-6, the “tissue level of IL-6 in the myocardium after reperfusion” value amounted to 60±7 pg/mg tissue. In addition, the “tissue level of IL-8 in the myocardium after reperfusion” value with IL-8 was 68±19 pg/mg tissue. In addition, in assay [2] (10 mg/kg intraperitoneally 10 min before heart excision, 30 min global ischemia at 37° C., 60 min reperfusion, percentage of basal LVDP, mean±SEM, C group 39±6%, p<0.05), the “peak value of percent recovery of LVDP after reperfusion” value is recorded as 79±5%. For the same molecule, the “peak value of percent recovery of maximum dP/dt after reperfusion” value in assay [2] (10 mg/kg intraperitoneally 10 min before heart excision, 30 min global ischemia, 60 min reperfusion, percentage of basal maximum dP/dt, mean±SEM, C group 54±7%, p<0.05) was determined as 80±4%. Also, the “percent recovery of LVDP versus C group over time” value in assay [2] (10 mg/kg intraperitoneally, at 20, 30, 40, 50, and 60 minutes after reperfusion) is recorded as “Significant improvements”. Moreover, the “percent recovery of max dP/dt versus C group over time” value in assay [2] (10 mg/kg intraperitoneally, at 30, 40, 50, and 60 minutes after reperfusion) is on record as “significant improvement”.
